How the values were obtained:
EKVX = experiment: NCI single-dose GI%, NSC lung; format: cell-based, human; conditions: 10.0 μM in one dose
SK-OV-3 = experiment: NCI single-dose GI%, ovarian; format: cell-based, human; conditions: SK-OV-3, ovarian; 10.0 μM in one dose
CAKI-1 = experiment: NCI single-dose GI%, renal; format: cell-based, human; conditions: CAKI-1, renal; 10.0 μM in one dose
[1] = tested on: caspase-3 in MDA-MB-231 cells; experiment: Apoptotic markers assay, caspase-3; format: cell-based, human; conditions: at IC50 concentration, vs untreated control
Experimental: (§1) The levels of Bax (apoptosis promoter), Bcl-2 (apoptosis inhibitor), and apoptosis coordination enzymes (caspase-3 and caspase-9) were measured.[78–80]
(§2) Apoptotic markers experiment was performed according to reported procedure using MDA-MB-231 cancer cell line.[78–80]

HT29 = experiment: NCI single-dose GI%, colon; format: cell-based, human; conditions: 10.0 μM in one dose
MDA-MB-231 = experiment: cells; conditions: Homo sapiens, MDA-MB-231, 48 h, read-out: In vitro cytotoxicity IC50
Experimental: (§3) The antitumor experiment was conducted on 59 human tumor cell lines derived from nine different human tissues, following the procedure of the Drug Evaluation Branch at the NCI, Bethesda, MD.[33]

leukemia HL-60 = experiment: cells; conditions: Homo sapiens, HL-60, 48 h, read-out: In vitro cytotoxicity IC50
Experimental: as §3

[2] = tested on: caspase-9 in MDA-MB-231 cells; experiment: Apoptotic markers assay, caspase-9; format: cell-based, human; conditions: at IC50 concentration, vs untreated control
Experimental: as §1, §2

in vitro = conditions: human
Experimental: (§4) A normal fibroblast-like fetal lung cell line (WI-38) was used to further investigate the therapeutic safety of the newly synthesized hybrids and evaluate their selective cytotoxicity toward normal and tumor cells.[33,77]
as §3

[3] = tested on: WI-38 normal fibroblast cells; experiment: in vitro; conditions: ratio of WI38 IC50 to cancer cell IC50 values
Experimental: as §4, §3

MCF7 = experiment: NCI single-dose GI%, breast; format: cell-based, human; conditions: 10.0 μM in one dose
HL-60(TB) = experiment: NCI single-dose GI%, leukemia; format: cell-based, human; conditions: 10.0 μM in one dose
UO-31 = experiment: NCI single-dose GI%, renal; format: cell-based, human; conditions: UO-31, renal; 10.0 μM in one dose
HER2 = HER2 (Homo sapiens, UniProt P04626); experiment: HER2 tyrosine kinase inhibition assay
Sequence of HER2 (P04626 23-1255): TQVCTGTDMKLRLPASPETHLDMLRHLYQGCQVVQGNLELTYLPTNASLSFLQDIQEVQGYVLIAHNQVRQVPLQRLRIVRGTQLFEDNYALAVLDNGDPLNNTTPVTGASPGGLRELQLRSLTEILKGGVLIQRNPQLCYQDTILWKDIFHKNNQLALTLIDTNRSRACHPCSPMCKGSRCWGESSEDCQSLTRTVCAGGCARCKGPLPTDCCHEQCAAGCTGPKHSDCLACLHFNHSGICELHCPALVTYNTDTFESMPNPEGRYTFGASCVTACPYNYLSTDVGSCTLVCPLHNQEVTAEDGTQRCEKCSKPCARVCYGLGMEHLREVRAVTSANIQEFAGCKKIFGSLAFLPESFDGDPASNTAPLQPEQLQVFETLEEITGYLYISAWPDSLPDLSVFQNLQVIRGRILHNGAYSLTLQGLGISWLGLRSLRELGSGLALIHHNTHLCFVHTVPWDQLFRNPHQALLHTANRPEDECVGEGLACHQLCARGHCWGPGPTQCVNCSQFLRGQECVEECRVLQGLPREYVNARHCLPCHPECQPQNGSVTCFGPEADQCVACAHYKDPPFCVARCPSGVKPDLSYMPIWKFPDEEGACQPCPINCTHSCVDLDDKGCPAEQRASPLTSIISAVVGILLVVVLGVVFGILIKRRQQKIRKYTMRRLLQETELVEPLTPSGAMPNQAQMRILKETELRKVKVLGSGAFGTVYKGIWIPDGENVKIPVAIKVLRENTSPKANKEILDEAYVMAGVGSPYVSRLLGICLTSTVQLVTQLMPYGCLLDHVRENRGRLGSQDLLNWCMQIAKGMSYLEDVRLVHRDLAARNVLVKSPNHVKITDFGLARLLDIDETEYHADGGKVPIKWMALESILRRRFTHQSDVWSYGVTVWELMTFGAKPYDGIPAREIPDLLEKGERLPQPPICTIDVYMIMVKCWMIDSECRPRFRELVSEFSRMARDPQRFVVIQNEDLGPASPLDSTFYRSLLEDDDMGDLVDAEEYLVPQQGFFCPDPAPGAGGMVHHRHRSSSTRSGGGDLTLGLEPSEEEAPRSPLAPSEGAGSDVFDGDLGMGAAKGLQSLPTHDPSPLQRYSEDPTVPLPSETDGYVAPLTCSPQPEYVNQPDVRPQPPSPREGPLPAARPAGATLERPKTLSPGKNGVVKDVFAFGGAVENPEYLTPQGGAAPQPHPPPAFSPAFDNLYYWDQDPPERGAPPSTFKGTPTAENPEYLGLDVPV

U251 = experiment: NCI single-dose GI%, CNS; format: cell-based, human; conditions: 10.0 μM in one dose
K-562 = experiment: NCI single-dose GI%, leukemia; format: cell-based, human; conditions: K-562, leukemia; 10.0 μM in one dose
BT-549 = experiment: NCI single-dose GI%, breast; format: cell-based, human; conditions: BT-549, breast; 10.0 μM in one dose
Bax in MDA-MB-231 cells = experiment: Apoptotic markers assay, Bax; format: cell-based, human; conditions: at IC50 concentration, vs untreated control
Experimental: as §1, §2

[4] = tested on: Bcl-2 in MDA-MB-231 cells; experiment: Apoptotic markers assay, Bcl-2; format: cell-based, human; conditions: at IC50 concentration, vs untreated control
Experimental: as §1

HL-60 cells [5] = experiment: Annexin V-FITC/PI apoptosis assay; format: cell-based, human; conditions: 24 h, at IC50 concentration
Source text: Most anticancer agents kill cancer cells via an apoptosis induction mechanism.[33,77]
As per our earlier study, we induced apoptosis using the leukemia HL-60 cell line and a widely recognized Annexin 5-FITC/PI detection kit. The cell line samples were examined utilizing a FACSCalibur flow cytometer.[33,77]

HOP-62 = experiment: NCI single-dose GI%, NSC lung; format: cell-based, human; conditions: HOP-62, NSC lung; 10.0 μM in one dose
[6] = tested on: breast adenocarcinoma MCF-7; experiment: cells; conditions: Homo sapiens, MCF7, 48 h, read-out: In vitro cytotoxicity IC50, MCF-7; MTT, 48 h drug exposure; mean ± SD of three experiments
T-47D = experiment: NCI single-dose GI%, breast; format: cell-based, human; conditions: 10.0 μM in one dose
A549/ATCC = experiment: NCI single-dose GI%, NSC lung; format: cell-based, human; conditions: 10.0 μM in one dose
59 cancer cell lines = experiment: NCI 59 cancer cell line panel, single dose; format: cell-based, human; conditions: 10 μM single dose; for MG% (mean growth percent): 59 cell lines; for Mean GI% Breast cancer: breast cancer subpanel; for Mean GI% Leukemia: leukemia subpanel
EGFR = EGFR (Homo sapiens, UniProt P00533); experiment: EGFR tyrosine kinase inhibition assay
Sequence of EGFR (P00533 25-1210): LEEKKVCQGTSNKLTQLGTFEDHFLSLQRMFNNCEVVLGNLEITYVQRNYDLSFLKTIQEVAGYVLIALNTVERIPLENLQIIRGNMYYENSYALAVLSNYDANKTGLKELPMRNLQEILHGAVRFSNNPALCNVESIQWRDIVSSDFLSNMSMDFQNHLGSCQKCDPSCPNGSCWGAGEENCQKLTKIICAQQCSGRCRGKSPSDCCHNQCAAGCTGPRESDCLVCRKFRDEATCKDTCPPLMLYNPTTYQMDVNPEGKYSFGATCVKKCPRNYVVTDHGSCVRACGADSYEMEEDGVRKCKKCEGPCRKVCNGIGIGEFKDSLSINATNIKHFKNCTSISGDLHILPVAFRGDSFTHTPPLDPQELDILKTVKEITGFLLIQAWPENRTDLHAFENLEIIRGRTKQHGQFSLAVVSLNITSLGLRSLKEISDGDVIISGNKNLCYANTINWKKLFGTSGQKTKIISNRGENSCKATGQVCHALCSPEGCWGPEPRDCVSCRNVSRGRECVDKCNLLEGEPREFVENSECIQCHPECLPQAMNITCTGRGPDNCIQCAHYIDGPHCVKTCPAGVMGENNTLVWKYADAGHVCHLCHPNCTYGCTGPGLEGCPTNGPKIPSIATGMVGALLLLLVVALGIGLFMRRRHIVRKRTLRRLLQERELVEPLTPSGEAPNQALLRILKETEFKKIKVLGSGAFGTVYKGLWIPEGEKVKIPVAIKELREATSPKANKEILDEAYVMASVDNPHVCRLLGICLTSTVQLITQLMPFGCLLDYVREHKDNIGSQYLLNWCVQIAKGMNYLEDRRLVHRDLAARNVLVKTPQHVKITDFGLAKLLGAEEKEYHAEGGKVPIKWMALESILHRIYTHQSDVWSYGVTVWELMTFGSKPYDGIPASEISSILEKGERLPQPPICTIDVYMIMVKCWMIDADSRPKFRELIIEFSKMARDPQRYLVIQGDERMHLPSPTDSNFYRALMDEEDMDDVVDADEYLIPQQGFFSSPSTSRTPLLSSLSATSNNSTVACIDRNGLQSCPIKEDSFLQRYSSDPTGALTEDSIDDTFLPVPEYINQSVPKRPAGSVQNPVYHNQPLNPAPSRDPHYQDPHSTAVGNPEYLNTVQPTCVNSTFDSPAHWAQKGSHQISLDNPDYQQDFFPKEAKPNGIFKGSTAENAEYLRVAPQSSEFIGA

UACC-257 = experiment: NCI single-dose GI%, melanoma; format: cell-based, human; conditions: UACC-257, melanoma; 10.0 μM in one dose
NCI-H522 = experiment: NCI single-dose GI%, NSC lung; format: cell-based, human; conditions: 10.0 μM in one dose
HL-60 cells [7] = experiment: Cell cycle analysis by flow cytometry; format: cell-based, human; conditions: at IC50 concentration
Experimental: Flow cytometry measures cell growth in different cell cycle phases (G0–G1, S, G2/M and pre-G1).[33,77] This study aimed to find out how the target compounds affect the growth of cancer cells by examining at how they change the cell cycle and cause apoptosis in HL-60 cells.
The cell cycle analysis was conducted similarly to our prior study, using the leukemia HL-60 cell line. The cells were stained with the DNA fluorochrome PI and analyzed using a FACSCalibur flow cytometer.[33,77]

VEGFR2 = VEGFR2 (Homo sapiens, UniProt P35968); experiment: VEGFR2 tyrosine kinase inhibition assay
Sequence of VEGFR2 (P35968 20-1356): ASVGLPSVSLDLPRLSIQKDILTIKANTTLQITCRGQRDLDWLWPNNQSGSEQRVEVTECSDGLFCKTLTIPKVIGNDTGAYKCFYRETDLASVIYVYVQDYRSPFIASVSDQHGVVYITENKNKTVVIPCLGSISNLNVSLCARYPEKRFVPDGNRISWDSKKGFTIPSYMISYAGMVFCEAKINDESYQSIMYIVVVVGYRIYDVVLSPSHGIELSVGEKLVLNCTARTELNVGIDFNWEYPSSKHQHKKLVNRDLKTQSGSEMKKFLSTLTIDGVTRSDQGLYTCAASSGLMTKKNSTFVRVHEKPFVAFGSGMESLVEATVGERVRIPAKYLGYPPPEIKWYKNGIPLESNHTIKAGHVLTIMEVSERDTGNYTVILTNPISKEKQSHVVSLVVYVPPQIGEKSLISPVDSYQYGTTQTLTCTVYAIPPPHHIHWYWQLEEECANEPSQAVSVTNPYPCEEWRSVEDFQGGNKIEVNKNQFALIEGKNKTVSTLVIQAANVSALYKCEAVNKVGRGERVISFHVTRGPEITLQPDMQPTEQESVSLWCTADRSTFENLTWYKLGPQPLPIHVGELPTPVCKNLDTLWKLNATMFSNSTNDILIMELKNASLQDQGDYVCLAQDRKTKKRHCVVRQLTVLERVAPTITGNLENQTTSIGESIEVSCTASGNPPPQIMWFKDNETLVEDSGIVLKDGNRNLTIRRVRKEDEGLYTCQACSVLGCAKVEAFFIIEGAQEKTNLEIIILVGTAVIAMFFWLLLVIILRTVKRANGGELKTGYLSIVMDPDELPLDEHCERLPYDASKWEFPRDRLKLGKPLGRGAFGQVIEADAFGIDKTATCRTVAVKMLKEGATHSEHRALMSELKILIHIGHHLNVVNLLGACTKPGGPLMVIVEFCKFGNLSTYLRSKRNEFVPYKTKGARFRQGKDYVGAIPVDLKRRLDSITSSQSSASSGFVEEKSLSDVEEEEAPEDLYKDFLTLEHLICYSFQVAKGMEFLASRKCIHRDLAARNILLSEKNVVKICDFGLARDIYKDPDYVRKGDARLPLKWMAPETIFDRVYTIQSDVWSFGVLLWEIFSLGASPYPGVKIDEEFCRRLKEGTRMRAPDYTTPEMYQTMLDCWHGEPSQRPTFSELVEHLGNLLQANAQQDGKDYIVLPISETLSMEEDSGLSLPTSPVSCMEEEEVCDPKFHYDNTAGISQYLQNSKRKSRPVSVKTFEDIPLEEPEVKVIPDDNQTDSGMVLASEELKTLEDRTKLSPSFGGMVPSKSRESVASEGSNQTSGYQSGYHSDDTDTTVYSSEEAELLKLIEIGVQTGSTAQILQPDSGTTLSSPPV

COLO 205 = experiment: NCI single-dose GI%, colon; format: cell-based, human; conditions: COLO 205, colon; 10.0 μM in one dose
PC-3 = experiment: NCI single-dose GI%, prostate; format: cell-based, human; conditions: PC-3, prostate; 10.0 μM in one dose

## CS(=O)(=O)c1ccc(C(=O)N2N=C(c3ccccc3)CC2c2ccc(F)cc2)cc1 (stereo not drawn) [Compound 18c, (5-(4-Fluorophenyl)-3-phenyl-4,5-dihydro-1H-pyrazol-1-yl)(4-(methylsulfonyl)phenyl)methanone]
EKVX
  GI%: 15%
SK-OV-3
  GI%: 14%
CAKI-1
  GI%: 22%
[1]
  Casp3 gene expression (fold change): 7.453 fold change
HT29
  GI%: 19%
MDA-MB-231
  IC50: 12.5 ± 0.56 µM
Leukemia HL-60
  IC50: 8.43 ± 1.7 µM
[2]
  Casp9 gene expression (fold change): 5.158 fold change
In vitro
  IC50 at 48 h: 34.8 ± 1.54 µM
[3]
  Mean tumor selectivity index (WI38/HL60, MCF7, and MDA-MB-231): 3.02
MCF7
  GI%: 11%
HL-60(TB)
  GI%: 46%
UO-31
  GI%: 20%
HER2
  IC50: 1430 ± 47 nM
U251
  GI%: 12%
K-562
  GI%: 33%
BT-549
  GI%: 14%
Bax in MDA-MB-231 cells
  Bax gene expression (fold change): 4.413 fold change
[4]
  Bcl2 gene expression (fold change): 0.184 fold change
HL-60 cells [5]
  Apoptosis Early: 2.91%
  Apoptosis Late: 4.4%
  Apoptosis Total (percentage of annexin V-FITC positive cells): 8.06%
  Necrosis: 0.76%
HOP-62
  GI%: 26%
[6]
  IC50: 16.2 ± 0.72 µM
T-47D
  GI%: 24%
A549/ATCC
  GI%: 32%
59 cancer cell lines
  PCE (positive cytotoxic effect: ratio of cell lines with growth inhibition >10% to total cell lines): 21/59
  MG% (mean growth percent): 90.58%
  Mean GI% Breast cancer: 16%
  Mean GI% Leukemia: 35%
EGFR
  IC50: 1120 ± 37 nM
UACC-257
  GI%: 32%
NCI-H522
  GI%: 48%
HL-60 cells [7]
  % G0–G1: 51.19%
  % G2–M: 17.53%
  % Pre-G1: 8.07%
  % S: 31.28%
  phase of cell cycle arrest: S/G2 phase
VEGFR2
  IC50: 218 ± 5 nM
COLO 205
  GI%: 22%
PC-3
  GI%: 17%

## Cc1ccc(C2=NN(C(=O)c3ccc(S(C)(=O)=O)cc3)C(c3ccc(C)cc3)C2)cc1 (stereo not drawn) [Compound 18g, (3,5-Bis(4-tolyl)-4,5-dihydro-1H-pyrazol-1-yl)(4-(methylsulfonyl)phenyl)methanone]
EKVX
  GI%: 25%
SK-OV-3
  GI%: 26%
CAKI-1
  GI%: 43%
[1]
  Casp3 gene expression (fold change): 3.945 fold change
HT29
  GI%: 15%
MDA-MB-231
  IC50: 4.07 ± 0.18 µM
Leukemia HL-60
  IC50: 10.4 ± 0.68 µM
[2]
  Casp9 gene expression (fold change): 4.386 fold change
In vitro
  IC50 at 48 h: 26.2 ± 1.16 µM
[3]
  Mean tumor selectivity index (WI38/HL60, MCF7, and MDA-MB-231): 3.73
MCF7
  GI%: 52%
HL-60(TB)
  GI%: 66%
UO-31
  GI%: 26%
HER2
  IC50: 496 ± 16 nM
U251
  GI%: 23%
K-562
  GI%: 80%
BT-549
  GI%: 27%
Bax in MDA-MB-231 cells
  Bax gene expression (fold change): 3.054 fold change
[4]
  Bcl2 gene expression (fold change): 0.252 fold change
HL-60 cells [5]
  Apoptosis Early: 4.47%
  Apoptosis Late: 7.84%
  Apoptosis Total (percentage of annexin V-FITC positive cells): 13.69%
  Necrosis: 1.38%
HOP-62
  GI%: 26%
[6]
  IC50: 11.7 ± 0.96 µM
T-47D
  GI%: 32%
A549/ATCC
  GI%: 43%
59 cancer cell lines
  PCE (positive cytotoxic effect: ratio of cell lines with growth inhibition >10% to total cell lines): 48/59
  MG% (mean growth percent): 72.98%
  Mean GI% Breast cancer: 31%
  Mean GI% Leukemia: 63%
EGFR
  IC50: 1020 ± 34 nM
UACC-257
  GI%: 40%
NCI-H522
  GI%: 73%
HL-60 cells [7]
  % G0–G1: 43.52%
  % G2–M: 29.09%
  % Pre-G1: 13.69%
  % S: 27.39%
  phase of cell cycle arrest: S/G2 phase
VEGFR2
  IC50: 168 ± 3 nM
COLO 205
  GI%: 33%
PC-3
  GI%: 33%

## CS(=O)(=O)c1ccc(C(=O)N2N=C(c3ccccc3)CC2c2ccccc2O)cc1 (stereo not drawn) [Compound 18h, (5-(2-Hydroxyphenyl)-3-phenyl-4,5-dihydro-1H-pyrazol-1-yl)(4-(methylsulfonyl)phenyl)methanone]
EKVX
  GI%: 41%
SK-OV-3
  GI%: 25%
CAKI-1
  GI%: 33%
[1]
  Casp3 gene expression (fold change): 5.559 fold change
HT29
  GI%: 20%
MDA-MB-231
  IC50: 7.18 ± 0.32 µM
Leukemia HL-60
  IC50: 8.99 ± 0.4 µM
[2]
  Casp9 gene expression (fold change): 2.799 fold change
In vitro
  IC50 at 48 h: 40.9 ± 1.81 µM
[3]
  Mean tumor selectivity index (WI38/HL60, MCF7, and MDA-MB-231): 4.51
MCF7
  GI%: 22%
HL-60(TB)
  GI%: 73%
UO-31
  GI%: 47%
HER2
  IC50: 253 ± 8 nM
U251
  GI%: 48%
K-562
  GI%: 55%
BT-549
  GI%: 19%
Bax in MDA-MB-231 cells
  Bax gene expression (fold change): 2.154 fold change
[4]
  Bcl2 gene expression (fold change): 0.423 fold change
HL-60 cells [5]
  Apoptosis Early: 6.18%
  Apoptosis Late: 3.34%
  Apoptosis Total (percentage of annexin V-FITC positive cells): 10.77%
  Necrosis: 1.25%
HOP-62
  GI%: 47%
[6]
  IC50: 12.4 µM
T-47D
  GI%: 30%
A549/ATCC
  GI%: 45%
59 cancer cell lines
  PCE (positive cytotoxic effect: ratio of cell lines with growth inhibition >10% to total cell lines): 51/59
  MG% (mean growth percent): 72.20%
  Mean GI% Breast cancer: 24%
  Mean GI% Leukemia: 46%
EGFR
  IC50: 574 ± 19 nM
UACC-257
  GI%: 39%
NCI-H522
  GI%: 55%
HL-60 cells [7]
  % G0–G1: 53.27%
  % G2–M: 17.07%
  % Pre-G1: 10.77%
  % S: 29.66%
  phase of cell cycle arrest: S/G2 phase
VEGFR2
  IC50: 135 ± 9 nM
COLO 205
  GI%: 20%
PC-3
  GI%: 21%

Source: publication PMC11240878, “Synthesis, enzyme inhibition assay, and molecular modeling study of novel pyrazolines linked to 4-methylsulfonylphenyl scaffold: antitumor activity and cell cycle analysis” (RSC Advances, 2024)
